Data taken from patent US5484801A, “Pharmaceutical composition for inhibiting HIV protease” (Abbott Laboratories, priority 1995, dated 1996).
Entries after “also recorded” stand apart in the source; their conditions may differ.

How the values were obtained:
[1] = target: HIV-1 protease (HIV-1 M:B_HXB2R, UniProt P04585); format: biochemical
[2] = tested on: HIV-2 protease; test: Inhibition of HIV-2 protease; format: biochemical; conditions: statement in words
[3] = Oral bioavailability in dogs, Protocol A (solid dosage forms); format: in vivo, beagle dogs; conditions: dog, plasma; unformulated solid in a capsule dosage form, 5 mg/kg oral dose in dogs
Method: Each dog received a single solid dosage form corresponding to a 5 mg/kg dose of the drug.

With `CC(C)c1nc(CN(C)C(=O)NC(C(=O)NC(Cc2ccccc2)CC(O)C(Cc2ccccc2)NC(=O)OCc2cncs2)C(C)C)cs1` (stereo not drawn) [Compound II] the “inhibition of HIV-1 protease” value [1] was “especially effective; also recorded: inhibitors”, the “inhibition of HIV-2 protease” value [2] was “inhibitors” and the “inhibition of HIV-2 protease” value ([2]; listed as formula II) was “especially effective”.

For `CC(C)c1nc(CN(C)C(=O)N[C@H](C(=O)N[C@@H](Cc2ccccc2)C[C@H](O)[C@H](Cc2ccccc2)NC(=O)OCc2cncs2)C(C)C)cs1` [Compound III, (2S,3S,5S)-5-(N-(N-((N-Methyl-N-((2-isopropyl-4-thiazolyl)methyl)-amino)carbonyl)valinyl)amino)-2-(N-((5-thiazolyl)methoxycarbonyl)amino)-1,6-diphenyl-3-hydroxyhexane], the bioavailability [3] was < 2%, the “inhibition of HIV-1 protease” value [1] was “inhibitors” and the “inhibition of HIV-2 protease” value [2] was “inhibitors”.
